Tested on: 439559-082-T-J2-PDC complex spheroid growth
Test: Anticancer human tumor 439559-082-T-J2-PDC patient-derived colon adenocarcinoma cell line growth inhibition [Asc]
Conditions: for IC50: curve of first compound; for viability, T/C: stronger effect = lower value
Method in brief: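 Complex spheroids combining tumor cells with HUVEC endothelial cells and human MSCs, at 37 degrees C, 5% CO2; agents tested alone or combined, half-log dilutions from at or near clinical Cmax, or 10 microM if Cmax unknown.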
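Also: spheroids exposed to agents for 7 days starting day 3 after seeding.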
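For viability, T/C in this document: percent of DMSO vehicle control viability with 100% = vehicle.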

Cc1nc(N2CCC3(CC2)COC(C)C3N)c(CO)nc1Sc1ccnc(N)c1Cl (configuration not stated) + CCN1C(C(=O)NC23CCC(C(=O)O)(CC2)CC3)C(c2cccc(Cl)c2F)C2(C(=O)Nc3cc(Cl)ccc32)C12CCCCC2
IC50 (second compound 0.03 µM): > 3000 nM | IC50 (second compound 0.0949 µM): > 3000 nM | IC50 (second compound 0.3 µM): > 3000 nM | IC50 (second compound 0.949 µM): > 3000 nM | IC50 (second compound 3 µM): > 3000 nM | viability, T/C (second compound 0.03 µM, first compound 0.00949 µM): 109% | viability, T/C (second compound 0.03 µM, first compound 0.03 µM): 110% | viability, T/C (second compound 0.03 µM, first compound 0.0949 µM): 106% | viability, T/C (second compound 0.03 µM, first compound 0.3 µM): 91.6% | viability, T/C (second compound 0.03 µM, first compound 0.949 µM): 91.7% | viability, T/C (second compound 0.03 µM, first compound 3 µM): 80.3% | viability, T/C (second compound 0.0949 µM, first compound 0.00949 µM): 107% | viability, T/C (second compound 0.0949 µM, first compound 0.03 µM): 109% | viability, T/C (second compound 0.0949 µM, first compound 0.0949 µM): 114% | viability, T/C (second compound 0.0949 µM, first compound 0.3 µM): 93.7% | viability, T/C (second compound 0.0949 µM, first compound 0.949 µM): 86.9% | viability, T/C (second compound 0.0949 µM, first compound 3 µM): 86.1% | viability, T/C (second compound 0.3 µM, first compound 0.00949 µM): 106% | viability, T/C (second compound 0.3 µM, first compound 0.03 µM): 111% | viability, T/C (second compound 0.3 µM, first compound 0.0949 µM): 105% | viability, T/C (second compound 0.3 µM, first compound 0.3 µM): 87.8% | viability, T/C (second compound 0.3 µM, first compound 0.949 µM): 91.2% | viability, T/C (second compound 0.3 µM, first compound 3 µM): 81.2% | viability, T/C (second compound 0.949 µM, first compound 0.00949 µM): 103% | viability, T/C (second compound 0.949 µM, first compound 0.03 µM): 113% | viability, T/C (second compound 0.949 µM, first compound 0.0949 µM): 115% | viability, T/C (second compound 0.949 µM, first compound 0.3 µM): 93.5% | viability, T/C (second compound 0.949 µM, first compound 0.949 µM): 93.2% | viability, T/C (second compound 0.949 µM, first compound 3 µM): 82.2% | viability, T/C (second compound 3 µM, first compound 0.00949 µM): 89.5% | viability, T/C (second compound 3 µM, first compound 0.03 µM): 96% | viability, T/C (second compound 3 µM, first compound 0.0949 µM): 97.4% | viability, T/C (second compound 3 µM, first compound 0.3 µM): 87.8% | viability, T/C (second compound 3 µM, first compound 0.949 µM): 77.9% | viability, T/C (second compound 3 µM, first compound 3 µM): 82.7%

Cn1ncnc1[C@H]1c2n[nH]c(=O)c3cc(F)cc(c23)N[C@@H]1c1ccc(F)cc1 + CNC(C)C(=O)NC1CN(S(=O)(=O)c2cccc(S(=O)(=O)N3CCC4CCC(C(=O)NC(c5ccccc5)c5ccccc5)N4C(=O)C(NC(=O)C(C)NC)C3)c2)CCC2CCC(C(=O)NC(c3ccccc3)c3ccccc3)N2C1=O
IC50 (second compound 0.00316 µM): < 0.316 nM | IC50 (second compound 0.01 µM): > 100 nM | IC50 (second compound 0.0316 µM): > 100 nM | IC50 (second compound 0.1 µM): > 100 nM | IC50 (second compound 0.316 µM): > 100 nM | IC50 (second compound 1 µM): > 100 nM | viability, T/C (second compound 0.00316 µM, first compound 0.000316 µM): 46.7% | viability, T/C (second compound 0.00316 µM, first compound 0.001 µM): 41.6% | viability, T/C (second compound 0.00316 µM, first compound 0.00316 µM): 38.5% | viability, T/C (second compound 0.00316 µM, first compound 0.01 µM): 46.7% | viability, T/C (second compound 0.00316 µM, first compound 0.0316 µM): 56.8% | viability, T/C (second compound 0.00316 µM, first compound 0.1 µM): 45% | viability, T/C (second compound 0.01 µM, first compound 0.000316 µM): 101% | viability, T/C (second compound 0.01 µM, first compound 0.001 µM): 101% | viability, T/C (second compound 0.01 µM, first compound 0.00316 µM): 105% | viability, T/C (second compound 0.01 µM, first compound 0.01 µM): 89% | viability, T/C (second compound 0.01 µM, first compound 0.0316 µM): 95.2% | viability, T/C (second compound 0.01 µM, first compound 0.1 µM): 89.1% | viability, T/C (second compound 0.0316 µM, first compound 0.000316 µM): 102% | viability, T/C (second compound 0.0316 µM, first compound 0.001 µM): 94.8% | viability, T/C (second compound 0.0316 µM, first compound 0.00316 µM): 101% | viability, T/C (second compound 0.0316 µM, first compound 0.01 µM): 88.9% | viability, T/C (second compound 0.0316 µM, first compound 0.0316 µM): 104% | viability, T/C (second compound 0.0316 µM, first compound 0.1 µM): 104% | viability, T/C (second compound 0.1 µM, first compound 0.000316 µM): 93.4% | viability, T/C (second compound 0.1 µM, first compound 0.001 µM): 101% | viability, T/C (second compound 0.1 µM, first compound 0.00316 µM): 97.2% | viability, T/C (second compound 0.1 µM, first compound 0.01 µM): 92.4% | viability, T/C (second compound 0.1 µM, first compound 0.0316 µM): 103% | viability, T/C (second compound 0.1 µM, first compound 0.1 µM): 104% | viability, T/C (second compound 0.316 µM, first compound 0.000316 µM): 99.8% | viability, T/C (second compound 0.316 µM, first compound 0.001 µM): 93.5% | viability, T/C (second compound 0.316 µM, first compound 0.00316 µM): 93.1% | viability, T/C (second compound 0.316 µM, first compound 0.01 µM): 88.1% | viability, T/C (second compound 0.316 µM, first compound 0.0316 µM): 97% | viability, T/C (second compound 0.316 µM, first compound 0.1 µM): 99.7% | viability, T/C (second compound 1 µM, first compound 0.000316 µM): 74.5% | viability, T/C (second compound 1 µM, first compound 0.001 µM): 72.2% | viability, T/C (second compound 1 µM, first compound 0.00316 µM): 79.5% | viability, T/C (second compound 1 µM, first compound 0.01 µM): 80.8% | viability, T/C (second compound 1 µM, first compound 0.0316 µM): 87% | viability, T/C (second compound 1 µM, first compound 0.1 µM): 81.6%
